This is an account of results in US7173004B2, “Macrocyclic isoquinoline peptide inhibitors of hepatitis C virus” (Bristol-Myers Squibb Company, priority 2003, dated 2007).

pEC50: −log10 of the molar value. Some results are limits rather than exact numbers.

The assay relates to HCV replicon (HCV 1b-377-neo replicon cells, Huh7). The assay can be described thus: HCV replicon cell-based FRET assay. Particulars: Hepatitis C virus, Huh-7. The method, boiled down: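 Huh7 cells carrying a neo-selectable genotype 1b HCV replicon (~3,000 RNA copies/cell) were seeded at 1.5×10^4 cells/well and treated 4 days at 37 °C (0.5% DMSO final). CC50 was read by alamar Blue (4 h, ex 530/em 580 nm). Lysates with 10 μM EDANS/DABCYL NS3 protease FRET peptide were read kinetically (ex 340/em 490 nm, 25 °C, ~15 min) for % inhibition.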
Broadly, the pEC50 is −log10 of the EC50, conventionally taken in molar units. A low value points to a high EC50. For `COc1ccc2c(OC3CC4C(=O)NC5(C(=O)NS(=O)(=O)C6CC6)CC5C=CCCCCCC(NC(=O)OC(C)(C)C)C(=O)N4C3)nccc2c1OC` (stereo not shown) [Compound 134], the pEC50 is > 7.30. The result for `COc1ccc2c(OC3CC4C(=O)NC5(C(=O)NS(=O)(=O)C6CC6)CC5C=CCCCCCC(NC(=O)NC(C)(C)C)C(=O)N4C3)nccc2c1` (stereo not shown) [Compound 135] reads > 7.30.

Regarding `COc1ccc2c(OC3CC4C(=O)NC5(C(=O)NS(=O)(=O)C6CC6)CC5C=CCCCCCC(NC(=O)NC5CCCC5)C(=O)N4C3)nccc2c1` (stereo not shown) [Compound 136], the pEC50 was > 7.30. Turning to `COc1ccc2c(O[C@@H]3C[C@H]4C(=O)N[C@]5(C(=O)NS(=O)(=O)C6CC6)C[C@H]5/C=C\COCC[C@H](NC(=O)OC(C)(C)C)C(=O)N4C3)nccc2c1` [Compound 141, [(Z)-(1S,4R,13S,17R)-4-cyclopropanesulfonylaminocarbonyl-17-(6-methoxy-isoquinolin-1-yloxy)-2,14-dioxo-10-oxa-3,15-diaza-tricyclo[13.3.0.0^4,6]octadec-7-en-13-yl]-carbamic acid tert-butyl ester], the negative logarithm of the EC50 (pEC50) is 5.30 to 6.30. In the case of `CC(C)(C)OC(=O)N[C@H]1CN(S(=O)(=O)c2ccccc2[N+](=O)[O-])CCC/C=C\[C@@H]2C[C@@]2(C(=O)NS(=O)(=O)C2CC2)NC(=O)[C@@H]2C[C@@H](Oc3nccc4ccccc34)CN2C1=O` [Compound 145], the pEC50 was 6.30 to 7.30. `CC(=O)N1CCC/C=C\[C@@H]2C[C@@]2(C(=O)NS(=O)(=O)C2CC2)NC(=O)[C@@H]2C[C@@H](Oc3nccc4ccccc34)CN2C(=O)[C@@H](NC(=O)OC(C)(C)C)C1` [Compound 146] showed a negative-log EC50 (pEC50) of 5.30 to 6.30. As for `CN1CCC/C=C\[C@@H]2C[C@@]2(C(=O)NS(=O)(=O)C2CC2)NC(=O)[C@@H]2C[C@@H](Oc3nccc4ccccc34)CN2C(=O)[C@@H](NC(=O)OC(C)(C)C)C1` [Compound 147], the negative-log EC50 (pEC50) is > 7.30. In the case of `COC(=O)N1CCC/C=C\[C@@H]2C[C@@]2(C(=O)NS(=O)(=O)C2CC2)NC(=O)[C@@H]2C[C@@H](Oc3nccc4ccccc34)CN2C(=O)[C@@H](NC(=O)OC(C)(C)C)C1` [Compound 148], the pEC50 is 6.30 to 7.30. The result for `CC(C)(C)COC(=O)N1CCCC=CC2CC2(C(=O)NS(=O)(=O)C2CC2)NC(=O)C2CC(Oc3nccc4ccccc34)CN2C(=O)C(NC(=O)OC(C)(C)C)C1` (stereo not shown) [Compound 149] reads 6.30 to 7.30.

`CC(C)(C)NC(=O)N1CCC/C=C\[C@@H]2C[C@@]2(C(=O)NS(=O)(=O)C2CC2)NC(=O)[C@@H]2C[C@@H](Oc3nccc4ccccc34)CN2C(=O)[C@@H](NC(=O)OC(C)(C)C)C1` [Compound 150]: the pEC50 is 6.30 to 7.30.

`CC(C)(C)OC(=O)N[C@H]1CNCCC/C=C\[C@@H]2C[C@@]2(C(=O)NS(=O)(=O)C2CC2)NC(=O)[C@@H]2C[C@@H](Oc3nccc4ccccc34)CN2C1=O` [Compound 151] had a pEC50 of 6.30 to 7.30. Consider `CC(C)(C)OC(=O)NC1CN(C(=O)C2CC2)CCCC=CC2CC2(C(=O)NS(=O)(=O)C2CC2)NC(=O)C2CC(Oc3nccc4ccccc34)CN2C1=O` (stereo not shown) [Compound 152], for which the pEC50 was 6.30 to 7.30. `CC(C)(C)OC(=O)N[C@H]1CN(S(C)(=O)=O)CCC/C=C\[C@@H]2C[C@@]2(C(=O)NS(=O)(=O)C2CC2)NC(=O)[C@@H]2C[C@@H](Oc3nccc4ccccc34)CN2C1=O` [Compound 153] showed a negative-log EC50 (pEC50) of 6.30 to 7.30.
